Measured values from patent US20160122386A1, “V1A RECEPTOR AGONISTS” (FERRING B.V., priority 2014, published 2016).
Like-named read-outs stand apart in the source and are kept apart here. Starred links: 1 amine or outer side, 2 acyl side, 3 side chain; linkers in the order of their positions; H or OH if unused. Positions of bridges follow the written chain, without caps; N, C: chain ends. Non-standard residues stand in square brackets, D forms with d. Residues, ends and D or L forms follow the SMILES beside them. Chains are numbered I, II in the order given. *: point of attachment. Orn((CH2)6NH2) = O=C([C@H](CCCNCCCCCCN[*:3])N[*:1])[*:2]; d(isoGln) = NC(=O)[C@@H](CCC(=O)[*:2])N[*:1]; isoGln = NC(=O)[C@H](CCC(=O)[*:2])N[*:1]; d(εLys) = N[C@H](CCCCN[*:1])C(=O)[*:2]; X1 = N[C@@H](CCC(=O)[*:2])C(=O)[*:1]; εLys = N[C@@H](CCCCN[*:1])C(=O)[*:2]; Aad = N[C@@H](CCCC(=O)O)C(=O)O; Cit = NC(=O)NCCC[C@H](N)C(=O)O; Suc = O=C(CCC(=O)[*:2])[*:1]; Dab = NCC[C@H](N)C(=O)O; PhAc = O=C(Cc1ccccc1)*

Target: T1, human V1aR (Homo sapiens, UniProt P37288)
T1 construct: expressed in transfected cells
Experiment: Agonist activity at vasopressin V1a receptors, cell-based FLIPR calcium assay
Conditions: for Emax: read-out: Efficacy Avg. (%)
Protocol: Efficacy (% MPE) is also determined as the percentage of maximal possible effect. This agonist assay utilizes cells from a stable cell line (HEK-flpin) expressing the vasopressin V1a receptor. Intracellular calcium increase in response to agonist is measured through real-time fluorescence of an intracellular calcium-sensitive dye. Cells are exposed to varying concentrations of test agonist compounds whereupon release of intracellular calcium is measured to determine the agonist potency and efficacy.
The cell line stably expresses the lacZ-Zeocin™ fusion gene and is designed for use with the Flp-In™ expression vector containing the gene of interest and the Flp recombinase expression plasmid, pOG44. The cell line contains a single integrated Flp Recombination Target (FRT) site from pFRT/lacZeo or pFRT/lacZeo2. To generate the HEK-flpin cell line stably expressing the human V1aR, the cells were co-transfected with the Flp-In™ expression vector containing the gene of interest (pcDNA5/FRT-hV1aR) and the Flp recombinase expression plasmid pOG44. Flp recombinase mediates insertion of the Flp-In™ expression vector into the genome at the integrated FRT site through site-specific DNA recombination. Stable cell lines expressing the hV1aR from the Flp-In™ expression vector can be generated by selection using hygromycin B. See Life Technologies/Invitrogen manual, Growth and Maintenance of Flp-In™ Cell Lines, Version E, published Feb.
Efficacy of this compound was set to be 100%. A stock solution of 5 mM was made up in DMSO and stored at −20° C.
HEK-flpin-hV1aR, cmcqV1aR, dV1aR and pV1aR cells were maintained in DMEM containing 10% (v/v) FBS-HI, 4 mM GlutaMAX™-I, 25 μg/mL Hygromycin B at 37° C. under 5% CO2 in a humidified atmosphere. Subculture was achieved by splitting semi-confluent cultures 1:3 to 1:6.
All compounds were made up in 100% DMSO at 10 mM stock concentrations and stored at −20° C. The compounds were allowed to thaw just before the assay. […] Typical dilution procedure of 10× final assay concentration involved a 1:100 top dilution (e.g., 2 μl Stock into 198 μl dilution medium) followed by half-log serial dilutions (e.g., 25.3 μl into 54.7 μl dilution medium supplemented with 1% DMSO (v/v)). (Dilution media consisted of phenol-red free DMEM containing 10% FBS-HI, 4 mM GlutaMAX™-I). […] The final DMSO concentration in the assay was 0.1%.
Loading Buffer was prepared by dissolving 1 vial of Calcium 4 Assay reagent in 100 mL of 1× HBSS-20 mM Hepes buffer.
The cells were loaded with Loading Buffer as follows. Cell plates were removed from the incubator and 20 μl of Loading Buffer containing probenecid (2.5 mM) was added to each well. The cells were incubated for 1 hr at 37° C. under 5% CO2 in a humidified atmosphere. The calcium image was obtained as follows.
The cell plates were transferred to FLIPR Tetra, along with a 384 well V-bottom plate pre-loaded with half-log concentrations of test compounds at 10× final test concentrations. The remaining steps of the assay were carried forward by FLIPR Tetra. A baseline reading was taken at 1-second (s) intervals for 5s followed by the addition of 5 μl of 10× compounds (test, reference, or Blank). The agonist-induced fluorescence signal was then measured for 180 s with initial 120 readings at 1-second intervals followed by 20 readings at 3-second intervals. Overall, each well in the FLIPR assay was composed of the following components in a total volume of 50 μl: 20 μl cells; 20 μl Calcium 4 Loading Buffer; […] 10× test or reference compound.

T1 sequence (P37288 whole entry): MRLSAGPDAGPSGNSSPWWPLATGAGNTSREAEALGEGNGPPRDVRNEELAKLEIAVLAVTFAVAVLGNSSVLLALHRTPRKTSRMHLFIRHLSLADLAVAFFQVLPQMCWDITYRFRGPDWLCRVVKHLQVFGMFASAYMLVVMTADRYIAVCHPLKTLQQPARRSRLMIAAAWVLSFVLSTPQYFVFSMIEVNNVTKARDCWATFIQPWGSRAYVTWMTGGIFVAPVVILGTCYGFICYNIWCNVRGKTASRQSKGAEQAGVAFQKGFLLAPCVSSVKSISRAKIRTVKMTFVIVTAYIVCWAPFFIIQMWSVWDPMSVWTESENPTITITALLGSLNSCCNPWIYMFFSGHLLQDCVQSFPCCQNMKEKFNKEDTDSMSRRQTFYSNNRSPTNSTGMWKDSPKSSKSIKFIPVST

Row | EC50 (HEK-flpin cells stably expressing hV1aR, intracellular calcium fluorescence, averaged, read-out: EC50 (Avg)) [nM] | SMILES | EC50 [nM] | Emax [%]
1 |  | CC[C@H](C)[C@@H]1NC(=O)[C@H](Cc2ccccc2)NC(=O)[C@@H](N)CSSC[C@@H](C(=O)N2CCC[C@H]2C(=O)N[C@@H](CCCNCCCCCNC(=O)CC[C@H](NC(=O)[C@H](CCCNC(=N)N)NC(=O)[C@@H]2CCCN2C(=O)[C@H](CCCNC(N)=O)NC(=O)[C@H](CC(N)=O)NC(=O)[C@H](CCC(N)=O)NC(=O)[C@H](Cc2ccccc2)NC(=O)[C@@H](Cc2ccc(OC)cc2)NC(=O)Cc2ccccc2)C(N)=O)C(=O)NCC(N)=O)NC(=O)[C@H](CC(N)=O)NC(=O)[C@H](CCC(N)=O)NC1=O [Compound 15] | 2.3 | 44
2 |  | CC[C@H](C)[C@@H]1NC(=O)[C@H](Cc2ccccc2)NC(=O)[C@@H](N)CSSC[C@@H](C(=O)N2CCC[C@H]2C(=O)N[C@@H](CCCNCCCCCCNC(=O)CCC(=O)NCCCC[C@H](NC(=O)[C@H](CCCNC(=N)N)NC(=O)[C@@H]2CCCN2C(=O)[C@H](CCCNC(=N)N)NC(=O)[C@H](CC(N)=O)NC(=O)[C@H](CCC(N)=O)NC(=O)[C@H](Cc2ccccc2)NC(=O)[C@@H](Cc2ccc(OC)cc2)NC(=O)Cc2ccccc2)C(N)=O)C(=O)NCC(N)=O)NC(=O)[C@H](CC(N)=O)NC(=O)[C@H](CCC(N)=O)NC1=O [Compound 1] (I: H-CFIQNCP[Orn((CH2)6NH2)]G-NH2 / II: PhAc-[dY](Me)FQNRPRK-NH2; disulfide I:1-I:6; linker I:8-II:8 via Suc) | 1 | 30
3 |  | CC[C@H](C)[C@@H]1NC(=O)[C@H](Cc2ccccc2)NC(=O)[C@@H](N)CSSC[C@@H](C(=O)N2CCC[C@H]2C(=O)N[C@@H](CCNC(=O)[C@@H](N)CCC(=O)NCCCC[C@H](NC(=O)[C@H](CCCNC(=N)N)NC(=O)[C@@H]2CCCN2C(=O)[C@H](C)NC(=O)[C@H](CC(N)=O)NC(=O)[C@H](CCC(N)=O)NC(=O)[C@H](Cc2ccccc2)NC(=O)[C@@H](Cc2ccc(OC)cc2)NC(=O)Cc2ccccc2)C(N)=O)C(=O)NCC(N)=O)NC(=O)[C@H](CC(N)=O)NC(=O)[C@H](CC(N)=O)NC1=O [Compound 63] (I: H-CFINNCP[Dab]G-NH2 / II: PhAc-[dY](Me)FQNAPRK-NH2; disulfide I:1-I:6; linker I:8-II:8 via X1) | 1.1 | 36
4 | 1.1 | CC[C@H](C)[C@@H]1NC(=O)[C@H](Cc2ccccc2)NC(=O)[C@@H](O)CSSC[C@@H](C(=O)N2CCC[C@H]2C(=O)N[C@@H](CCNC(=O)[C@@H](N)CCCCNC(=O)CC[C@H](NC(=O)[C@H](CCCNC(=N)N)NC(=O)[C@@H]2CCCN2C(=O)[C@H](CCCCN)NC(=O)[C@H](CC(N)=O)NC(=O)[C@H](CCC(N)=O)NC(=O)[C@H](Cc2ccccc2)NC(=O)[C@@H](Cc2ccc(OC)cc2)NC(=O)CC(C)C)C(N)=O)C(=O)NCC(N)=O)NC(=O)[C@H](CC(N)=O)NC(=O)[C@H](CCC(N)=O)NC1=O [Compound 33] |  | 50
5 |  | CC[C@H](C)[C@@H]1NC(=O)[C@H](Cc2ccccc2)NC(=O)[C@@H](N)CSSC[C@@H](C(=O)N2CCC[C@H]2C(=O)N[C@@H](CCNC(=O)[C@H](N)CCCCNC(=O)[C@H](CCCCNC(C)=O)NC(=O)CC[C@H](NC(=O)[C@H](CCCNC(=N)N)NC(=O)[C@@H]2CCCN2C(=O)[C@H](C)NC(=O)[C@H](CC(N)=O)NC(=O)[C@H](CCC(N)=O)NC(=O)[C@H](Cc2ccccc2)NC(=O)[C@@H](Cc2ccc(OC)cc2)NC(=O)Cc2ccccc2)C(N)=O)C(=O)NCC(N)=O)NC(=O)[C@H](CC(N)=O)NC(=O)[C@H](CCCC(N)=O)NC1=O [Compound 58] (I: H-CFI[Aad](NH2)NCP[Dab]G-NH2 / II: PhAc-[dY](Me)FQNAPR[isoGln]K(Ac)[d(εLys)]; disulfide I:1-I:6; amide I:8-II:C) | 2.6 | 26
6 |  | CC[C@H](C)[C@@H]1NC(=O)[C@H](Cc2ccccc2)NC(=O)[C@@H](N)CSSC[C@@H](C(=O)N2CCC[C@H]2C(=O)N[C@@H](CCCNCCCC(=O)NCCCC[C@H](NC(=O)[C@H](CCCNC(=N)N)NC(=O)[C@@H]2CCCN2C(=O)[C@H](CCCNC(=N)N)NC(=O)[C@H](CC(N)=O)NC(=O)[C@H](CCC(N)=O)NC(=O)[C@H](Cc2ccccc2)NC(=O)[C@@H](Cc2ccc(OC)cc2)NC(=O)Cc2ccccc2)C(N)=O)C(=O)NCC(N)=O)NC(=O)[C@H](CC(N)=O)NC(=O)[C@H](CCC(N)=O)NC1=O [Compound 7] | > 10000 | 24
7 |  | CC[C@H](C)[C@@H]1NC(=O)[C@H](Cc2ccccc2)NC(=O)[C@@H](O)CSSC[C@@H](C(=O)N2CCC[C@H]2C(=O)N[C@@H](CCNC(=O)[C@@H](N)CCCCNC(=O)CC[C@H](NC(=O)[C@H](CCCNC(=N)N)NC(=O)[C@@H]2CCCN2C(=O)[C@H](CCCNC(N)=O)NC(=O)[C@H](CC(N)=O)NC(=O)[C@H](CCC(N)=O)NC(=O)[C@H](Cc2ccccc2)NC(=O)[C@@H](Cc2ccc(OC)cc2)NC(=O)Cc2ccccc2)C(N)=O)C(=O)NCC(N)=O)NC(=O)[C@H](CC(N)=O)NC(=O)[C@H](CCCC(N)=O)NC1=O [Compound 48] | 1.4 | 67
8 |  | CC[C@H](C)[C@@H]1NC(=O)[C@H](Cc2ccccc2)NC(=O)[C@@H](N)CSSC[C@@H](C(=O)N2CCC[C@H]2C(=O)N[C@@H](CCNC(=O)[C@@H](N)CCCCNC(=O)CC[C@@H](NC(=O)[C@H](CCCNC(=N)N)NC(=O)[C@@H]2CCCN2C(=O)[C@H](C)NC(=O)[C@H](CC(N)=O)NC(=O)[C@H](CCC(N)=O)NC(=O)[C@H](Cc2ccccc2)NC(=O)[C@@H](Cc2ccc(OC)cc2)NC(=O)Cc2ccccc2)C(N)=O)C(=O)NCC(N)=O)NC(=O)[C@H](CC(N)=O)NC(=O)[C@H](CCCC(N)=O)NC1=O [Compound 53] (I: H-CFI[Aad](NH2)NCP[Dab]G-NH2 / II: PhAc-[dY](Me)FQNAPR[d(isoGln)][εLys]; disulfide I:1-I:6; amide I:8-II:C) | 1.7 | 43
9 |  | CC[C@H](C)[C@@H]1NC(=O)[C@H](Cc2ccccc2)NC(=O)[C@@H](N)CSSC[C@@H](C(=O)N2CCC[C@H]2C(=O)N[C@@H](CCNC(=O)[C@H](N)CCCCNC(=O)CC[C@H](NC(=O)[C@H](CCCNC(=N)N)NC(=O)[C@@H]2CCCN2C(=O)[C@H](CCCNC(N)=O)NC(=O)[C@H](CC(N)=O)NC(=O)[C@H](CCC(N)=O)NC(=O)[C@H](Cc2ccccc2)NC(=O)[C@@H](Cc2ccc(OC)cc2)NC(=O)Cc2ccccc2)C(N)=O)C(=O)NCC(N)=O)NC(=O)[C@H](CC(N)=O)NC(=O)[C@H](CCC(N)=O)NC1=O [Compound 49] (I: H-CFIQNCP[Dab]G-NH2 / II: PhAc-[dY](Me)FQN[Cit]PR[isoGln][d(εLys)]; disulfide I:1-I:6; amide I:8-II:C) | 0.76 | 55
10 |  | CC[C@H](C)[C@@H]1NC(=O)[C@H](Cc2ccccc2)NC(=O)[C@@H](N)CSSC[C@@H](C(=O)N2CCC[C@H]2C(=O)N[C@@H](CCNC(=O)[C@@H](N)CCC(=O)NCCCC[C@H](NC(=O)[C@H](CCCNC(=N)N)NC(=O)[C@@H]2CCCN2C(=O)[C@H](C)NC(=O)[C@H](CC(N)=O)NC(=O)[C@H](CCC(N)=O)NC(=O)[C@H](Cc2ccccc2)NC(=O)[C@@H](Cc2ccc(OC)cc2)NC(=O)Cc2ccccc2)C(N)=O)C(=O)NCC(N)=O)NC(=O)[C@H](CC(N)=O)NC(=O)[C@H](CCCC(N)=O)NC1=O [Compound 64] (I: H-CFI[Aad](NH2)NCP[Dab]G-NH2 / II: PhAc-[dY](Me)FQNAPRK-NH2; disulfide I:1-I:6; linker I:8-II:8 via X1) | 2.9 | 42
